Assay [1] concerns the target T1, Kv1.5 potassium channel (Homo sapiens, UniProt P22460).
T1 construct: expressed in transfected cells
The assay can be described thus: Electrophysiological studies, whole cell patch clamp, inhibition of Kv1.5 potassium currents in Chinese hamster ovary cells. In kind it is cell-based. As to conditions: CHO cells. The method, then: Electrophysiological recordings of potassium currents in Chinese hamster ovary cells stably expressing the gene construct for the Kv1.5 potassium channel subunit were performed using the whole cell configuration of the patch clamp technique (Hamill et al., Pflugers Archiv 391:85, 1981). Cell lines expressing Kv1.5 were prepared using standard techniques known to those skilled in the art. Cells were plated on glass coverslips at a density of 2×10^4 cells/coverslip and used within 24-48 hours. Solutions used for electrophysiological recordings were as follows. Extracellular bathing solutions contained (in mM) 132 NaCl, 5.4 KCl, 1.8 CaCl2, 0.8 MgCl2, 10 HEPES, 5 glucose at pH 7.3. Electrode pipette solutions for measuring Kv1.5 contain (in mM) 100 KCl 5 NaCl, 2 MgCl2, 5 mM EGTA, 10 mM HEPES and 5 glucose at pH 7.4, 295 mOsm. The coverslips were placed in a small chamber (volume ~200 μl) on the mechanical stage of an inverted microscope and perfused (2 ml/min) with extracellular recording solution. Drug was applied using a series of narrow-bore glass capillary tubes (inner diameter ~100 μm) positioned approximately 200 μm from the cell.

Assay [2] has as its target T2, human Kv1.5 (Homo sapiens, UniProt P22460).
T2 construct: expressed in transfected cells
The assay can be described thus: 86Rb efflux assay, inhibition of 86Rb efflux through Kv1.5 potassium channels expressed in CHO cells. The assay is classed as cell-based. As to conditions: Kv1.5 in CHO cells, 70 mM KCl, 1 minute. As for the experimental part: Cells stably transfected with cDNA for human Kv1.5 (in pcDNA3 vector) were grown as confluent monolayers in 96 well tissue culture plates in MEM alpha with 10% heat inactivated fetal bovine serum and 400 μg/ml G418. Cells were incubated overnight in growth media containing 1 μCi/ml ^86 Rb to permit intracellular uptake of the isotope. At the end of the incubation period, the ^86 Rb solution was aspirated and the cells washed three times with Earls Balanced Salt Solution (EBSS) which contained (in mM) 132 NaCl 5.4 KCl, 1.8 CaCl2, 0.8 mM MgCl2 10 mM HEPES and 5 mM glucose. The cells were then preincubated for 10 minutes at room temperature in 100 μl/well of EBSS or EBSS containing test compounds. At the end of this period the wells were aspirated and to each well was then added 100 μl of a modified EBSS solution containing 70 mM KCl (NaCl replaced by KCl) and the compound to be tested. The high KCl concentration was utilized to depolarize the cells to membrane potentials that would activate Kv1.5 channels. After a 1 minute incubation in 70 mM KCl EBSS plus test compound, the solution was removed and placed into the appropriate well of a 96 well counting plate for analysis. Finally 100 μl of 0.1% sodium docecyl sulfate in EBSS was added to each well to lyse the cells. The lysate was taken for analysis to determine final cell content of ^86 Rb. Samples were counted in a Wallac Microbeta liquid scintillation counter by Cerenkov emission. Efflux was expressed as a percentage of the initial cell content of ^86 Rb.
The testing results of selective compounds from Tables 1A-C using this assay are reported in Table 2 (flux) as the potency for inhibition of ^86 Rb efflux through Kv1.5 potassium channels expressed in CHO cells by compounds of the invention.

17 molecules from US6333337A, “Potassium channel inhibitors” (ICAgen, Inc., priority 1999, dated 2001) can be followed below.

Molecules are shown by their SMILES. pIC50: −log10 of the molar value.

What is called pIC50 is the negative decadic logarithm of the IC50, by convention in mol/L. Read a high pIC50 as a low IC50.

T2 sequence (P22460 whole entry): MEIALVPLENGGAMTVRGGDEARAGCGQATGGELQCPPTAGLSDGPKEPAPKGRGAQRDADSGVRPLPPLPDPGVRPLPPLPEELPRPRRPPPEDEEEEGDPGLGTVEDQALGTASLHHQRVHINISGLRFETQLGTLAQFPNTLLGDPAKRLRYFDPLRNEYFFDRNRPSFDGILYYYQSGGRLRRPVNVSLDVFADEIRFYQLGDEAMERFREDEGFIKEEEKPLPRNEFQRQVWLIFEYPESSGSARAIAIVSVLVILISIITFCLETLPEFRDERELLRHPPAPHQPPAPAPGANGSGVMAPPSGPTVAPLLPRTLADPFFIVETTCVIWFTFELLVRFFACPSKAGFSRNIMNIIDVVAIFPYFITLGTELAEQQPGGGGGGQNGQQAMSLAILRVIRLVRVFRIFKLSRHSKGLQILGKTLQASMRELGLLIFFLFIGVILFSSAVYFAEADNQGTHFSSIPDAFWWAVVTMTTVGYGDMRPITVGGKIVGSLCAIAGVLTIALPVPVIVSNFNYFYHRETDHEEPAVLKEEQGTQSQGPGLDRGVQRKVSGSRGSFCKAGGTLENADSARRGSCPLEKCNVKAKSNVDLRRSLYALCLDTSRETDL
T1 sequence (P22460 whole entry): as above

`CCc1ccc(S(=O)(=O)NC2c3cc(NC(=O)c4ccccc4OC)ccc3CCC2O)cc1` (stereo not drawn) [Entry 13]: the pIC50 in assay [1] is 6.40; in assay [2], under 4.30.

In assay [1], `CCc1ccc(S(=O)(=O)NC2c3cc(N(Cc4cccnc4)C(=O)C4CC4)ccc3CCC2O)cc1` (stereo not drawn) [Entry 123] gave a pIC50 of 7.00.

`CCc1ccc(S(=O)(=O)NC2c3cc(NC(=O)c4cccc(OC)c4)ccc3CCC2O)cc1` (stereo not drawn) [Entry 158] showed a negative-log IC50 (pIC50) in assay [1] of 6.22.

Turning to `CCc1ccc(S(=O)(=O)NC2c3cc(N(Cc4cccnc4)C(=O)C4CC4)ccc3CCC2O)cc1` (stereo not drawn) [Entry 162], the pIC50 in assay [1] is 6.70.

Take `Cc1cccc(C(=O)Nc2ccc3c(c2)C(NS(=O)(=O)c2cccc(C)c2)C(O)CC3)c1` (stereo not drawn) [Entry 97]: the pIC50 in assay [2] is 4.41.

In turn, `CCc1ccc(S(=O)(=O)N(Cc2cccnc2)C2c3cc(NC(=O)c4cccc(OC)c4)ccc3CCC2O)cc1` (stereo not drawn) [Entry 132] gave a negative logarithm of the IC50 (pIC50) in assay [1] of 6.30.

In assay [2], `CCc1ccc(C(=O)Nc2ccc3c(c2)C(NS(=O)(=O)c2ccc(C(C)C)cc2)C(O)CC3)cc1` (stereo not drawn) [Entry 40] had a negative logarithm of the IC50 (pIC50) of 5.05.

Turning to `CCc1ccc(S(=O)(=O)NC2c3cc(NC(=O)C#Cc4ccccc4)ccc3CCC2O)cc1` (stereo not drawn) [Entry 28], the results for the pIC50 in assay [1] and in assay [2] were 7.05 and 5.23, respectively.

With `CCc1ccc(S(=O)(=O)NC2c3cc(NC(=O)c4cccc(OC)c4)ccc3CCC2O)cc1` (stereo not drawn) [Entry 1], the negative logarithm of the IC50 (pIC50) in assay [1] was 6.60; in assay [2], 5.17.

Regarding `CCc1ccc(S(=O)(=O)NC2c3cc(NC(=O)C4CCCN4Cc4cccc(Cl)c4)ccc3CCC2O)cc1` (stereo not drawn) [Entry 135], in assay [1], the negative-log IC50 (pIC50) is 7.00.

Turning to `CCCCc1ccc(S(=O)(=O)NC2c3cc(NC(=O)c4cccc(OC)c4)ccc3CCC2O)cc1` (stereo not drawn) [Entry 19], the values for the negative-log IC50 (pIC50) in assay [1] and in assay [2] were 7.30 and 5.54, respectively.

As to `CCc1ccc(S(=O)(=O)N[C@H]2c3cc(NCc4ccc(OC(F)(F)F)cc4)ccc3CC[C@@H]2O)cc1` (relative stereo) [Entry 60, trans-N1-(4-ethylphenylsulfonyl)-N7-(4-trifluoromethoxybenzyl)-1,7-diamino-1,2,3,4-tetrahydro-2-naphthalenol], the negative-log IC50 (pIC50) is 6.30 in assay [1] and under 4.30 in assay [2].

In the case of `COc1cc(C)c(S(=O)(=O)NC2c3cc(NC(=O)c4ccccc4)ccc3CCC2O)c(C)c1C` (stereo not drawn) [Entry 110], the pIC50 in assay [2] was 4.92.

With `CCc1ccc(S(=O)(=O)NC2c3cc(NC(=O)C4Cc5ccccc5CN4CC)ccc3CCC2O)cc1` (stereo not drawn) [Entry 24], the pIC50 was 6.22 in assay [1] and 5.23 in assay [2].

`CCc1ccc(S(=O)(=O)NC2c3cc(NC(=O)c4cccs4)ccc3CCC2O)cc1` (stereo not drawn) [Entry 103] gave a pIC50 in assay [2] of 4.70.

As for `COc1cccc(C(=O)Nc2ccc3c(c2)C(NS(=O)(=O)Cc2ccccc2)C(O)CC3)c1` (stereo not drawn) [Entry 70], the results for the pIC50 in assay [1] and in assay [2] were 5.68 and 4.54, respectively.

In assay [2], `CCCc1ccc(S(=O)(=O)NC2c3cc(NC(=O)c4ccc([N+](=O)[O-])cc4)ccc3CCC2O)cc1` (stereo not drawn) [Entry 85] showed a pIC50 of 4.34.
